Results: ChEMBL document CHEMBL3217521, “Analogues of the HIV-Tat peptide containing N-modified arginines as potent inhibitors of protein arginine N-methyltransferases” (Medchemcomm, 2012)
Activity calls are given as the source filed them. The calls are words filed in the database; no cut-off is given here. Starred links: 1 amine or outer side, 2 acyl side, 3 side chain; linkers in the order of their positions; H or OH if unused. Non-standard residues stand in square brackets, D forms with d. Residues, ends and D or L forms follow the SMILES beside them. X2 = N/C(=N\CC(F)(F)F)NCCC[C@H](N[*:1])C(=O)[*:2]; X3 = N/C(=N\Cc1ccccc1)NCCC[C@H](N[*:1])C(=O)[*:2]; X4 = NC(NCCC[C@H](N[*:1])C(=O)[*:2])=[N+]1CCCC1; X5 = N/C(=N\C1CC1)NCCC[C@H](N[*:1])C(=O)[*:2]; X1 = N/C(=N\O)NCCC[C@H](N[*:1])C(=O)[*:2]

Experiments:
[1] = target: T1, Protein arginine N-methyltransferase 6 (Homo sapiens, UniProt Q96LA8); test: Activity at PRMT6 (unknown origin) using [methyl-14C]AdoMet at 0.25 to 200 uM after 60 to 120 mins by tricine gel electrophoresis
Target sequence in this assay (Q96LA8 whole entry, looked up): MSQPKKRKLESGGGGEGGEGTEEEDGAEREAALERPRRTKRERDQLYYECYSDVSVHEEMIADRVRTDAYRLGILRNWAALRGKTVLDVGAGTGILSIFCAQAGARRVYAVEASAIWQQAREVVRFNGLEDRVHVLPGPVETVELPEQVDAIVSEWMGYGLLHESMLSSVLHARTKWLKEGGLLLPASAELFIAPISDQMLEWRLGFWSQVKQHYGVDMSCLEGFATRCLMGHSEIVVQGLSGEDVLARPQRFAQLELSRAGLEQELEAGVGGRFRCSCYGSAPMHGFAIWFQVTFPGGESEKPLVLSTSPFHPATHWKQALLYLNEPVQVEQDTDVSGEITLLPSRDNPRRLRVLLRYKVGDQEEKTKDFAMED

[2] = target: T2, Protein arginine N-methyltransferase 1 (Homo sapiens, UniProt Q99873); test: Activity at PRMT1 (unknown origin) using [methyl-14C]AdoMet at 0.25 to 200 uM after 60 to 120 mins by tricine gel electrophoresis
Target sequence in this assay (Q99873 whole entry, looked up): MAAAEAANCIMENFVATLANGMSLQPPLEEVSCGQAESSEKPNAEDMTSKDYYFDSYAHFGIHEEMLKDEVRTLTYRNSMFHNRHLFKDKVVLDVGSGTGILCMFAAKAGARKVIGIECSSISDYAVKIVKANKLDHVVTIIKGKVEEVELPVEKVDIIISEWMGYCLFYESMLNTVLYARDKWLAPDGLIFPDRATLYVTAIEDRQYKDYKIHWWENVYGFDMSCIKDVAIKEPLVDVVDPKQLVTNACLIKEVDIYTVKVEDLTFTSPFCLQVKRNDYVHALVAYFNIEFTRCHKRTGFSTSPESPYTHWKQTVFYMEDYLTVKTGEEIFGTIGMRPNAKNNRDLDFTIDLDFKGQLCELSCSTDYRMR

[3] = target: T3, Histone-arginine methyltransferase CARM1 (Homo sapiens) (UniProt Q86X55); test: Activity at PRMT4 (unknown origin) using [methyl-14C]AdoMet at 0.25 to 200 uM after 60 to 120 mins by tricine gel electrophoresis
T3 sequence (whole entry): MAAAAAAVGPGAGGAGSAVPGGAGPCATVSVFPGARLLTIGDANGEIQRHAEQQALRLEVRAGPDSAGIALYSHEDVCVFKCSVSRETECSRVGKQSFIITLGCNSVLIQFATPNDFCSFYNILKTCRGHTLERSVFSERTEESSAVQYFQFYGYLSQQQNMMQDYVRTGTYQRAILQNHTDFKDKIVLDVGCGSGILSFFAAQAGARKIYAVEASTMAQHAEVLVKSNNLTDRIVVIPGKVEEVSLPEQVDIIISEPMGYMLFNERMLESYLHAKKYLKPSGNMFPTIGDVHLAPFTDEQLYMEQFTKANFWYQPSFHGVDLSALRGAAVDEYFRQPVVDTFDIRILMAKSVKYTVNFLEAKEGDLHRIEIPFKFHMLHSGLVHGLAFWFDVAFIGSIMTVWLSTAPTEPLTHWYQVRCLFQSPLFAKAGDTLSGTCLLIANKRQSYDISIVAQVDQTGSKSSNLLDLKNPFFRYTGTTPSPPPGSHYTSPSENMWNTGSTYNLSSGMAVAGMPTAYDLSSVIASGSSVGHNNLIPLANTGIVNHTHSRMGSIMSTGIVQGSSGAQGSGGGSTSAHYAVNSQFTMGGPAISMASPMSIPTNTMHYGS

[4] = target: T2, Protein arginine N-methyltransferase 1; test: Activity at PRMT1 (unknown origin) assessed as methylation of substituted arginines by LC-MS/MS analysis
Target sequence in this assay (Q99873 whole entry, looked up): as the sequence (Q99873 whole entry, looked up) above

[5] = target: T2, Protein arginine N-methyltransferase 1; test: Inhibition of PRMT1 (unknown origin) using AdoMet by Michaelis-Menten equation analysis
Target sequence in this assay (Q99873 whole entry): as the sequence (Q99873 whole entry, looked up) above

[6] = target: T1, Protein arginine N-methyltransferase 6; test: Activity at PRMT6 (unknown origin) assessed as methylation of substituted arginines by LC-MS/MS analysis
Target sequence in this assay (Q96LA8 whole entry, looked up): as the sequence (Q96LA8 whole entry, looked up) above

[7] = target: T1, Protein arginine N-methyltransferase 6; test: Inhibition of PRMT6 (unknown origin) using AdoMet by Michaelis-Menten equation analysis
Target sequence in this assay (Q96LA8 whole entry): as the sequence (Q96LA8 whole entry, looked up) above

[8] = target: T1, Protein arginine N-methyltransferase 6; test: Activity at 50 to 800 nM of PRMT6 (unknown origin) assessed as increase of Vmax up to 200 uM relative to control
Target sequence in this assay (Q96LA8 whole entry, looked up): as above

[9] = target: T1, Protein arginine N-methyltransferase 6; test: Activity at PRMT6 (unknown origin) using AdoMet assessed as formation of MMA and aDMA at 0.25 to 200 uM after 60 to 120 mins by LC-MS/MS analysis
Target sequence in this assay (Q96LA8 whole entry, looked up): as above

[10] = target: T2, Protein arginine N-methyltransferase 1; test: Activity at PRMT1 (unknown origin) using AdoMet assessed as formation of MMA and aDMA at 0.25 to 200 uM after 60 to 120 mins by LC-MS/MS analysis
Target sequence in this assay (Q99873 whole entry, looked up): as the sequence (Q99873 whole entry, looked up) above

[11] = target: T2, Protein arginine N-methyltransferase 1; test: Activity at 800 nM of PRMT1 (unknown origin) at 100 to 200 uM
Target sequence in this assay (Q99873 whole entry, looked up): as above

[12] = target: T2, Protein arginine N-methyltransferase 1; test: Activity at 50 to 100 nM of PRMT1 (unknown origin) up to 200 uM
Target sequence in this assay (Q99873 whole entry, looked up): as above

[13] = target: T2, Protein arginine N-methyltransferase 1; test: Inhibition of 50 nM of PRMT1 (unknown origin) up to 200 uM
Target sequence in this assay (Q99873 whole entry, looked up): as above

[14] = target: T2, Protein arginine N-methyltransferase 1; test: Inhibition of 50 to 800 nM of PRMT1 (unknown origin) up to 200 uM
[15] = target: T1, Protein arginine N-methyltransferase 6; test: Activity at 50 to 100 nM of PRMT6 (unknown origin) up to 200 uM
Target sequence in this assay (Q96LA8 whole entry, looked up): as the sequence (Q96LA8 whole entry, looked up) above

[16] = target: T1, Protein arginine N-methyltransferase 6; test: Activity at 100 to 400 nM of PRMT6 (unknown origin) assessed as increase of Vmax up to 200 uM relative to control
Target sequence in this assay (Q96LA8 whole entry, looked up): as above

[17] = target: T1, Protein arginine N-methyltransferase 6; test: Activity at 50 to 800 nM of PRMT6 (unknown origin) assessed as increase of Km up to 200 uM relative to control
[18] = species on record: Homo sapiens; test: Ratio of PRMT4 (unknown origin) to PRMT1 (unknown origin)
[19] = species on record: Homo sapiens; test: Ratio of PRMT4 (unknown origin) to PRMT6 (unknown origin)
[20] = target: T1, Protein arginine N-methyltransferase 6; test: Activity at 400 nM of PRMT6 (unknown origin) using histone H3 tail peptide
[21] = target: T1, Protein arginine N-methyltransferase 6; test: Inhibition of 50 to 100 nM of PRMT6 (unknown origin) up to 200 uM
[22] = target: T2, Protein arginine N-methyltransferase 1; test: Activity at 50 to 800 nM of PRMT1 (unknown origin) up to 200 uM
[23] = target: T3, Histone-arginine methyltransferase CARM1 (Homo sapiens); test: Activity at PRMT4 (unknown origin) using AdoMet assessed as formation of MMA and aDMA at 0.25 to 200 uM after 60 to 120 mins by LC-MS/MS analysis
[24] = target: T1, Protein arginine N-methyltransferase 6; test: Activity at PRMT6 (unknown origin) at 100 uM using => 5 uM of AdoMet
[25] = target: T2, Protein arginine N-methyltransferase 1; test: Activity at PRMT1 (unknown origin) at 100 uM using => 5 uM of AdoMet

| Compound | Activity [1] | Activity [2] | Activity [3] | Activity [4] | Ki [5] | Activity [6] | Ki [7] | Activity [9] | Activity [10] | Selectivity ratio [18] | Selectivity ratio [19] | Activity [23] | further results |
| --- | --- | --- | --- | --- | --- | --- | --- | --- | --- | --- | --- | --- | --- |
| N=C(N)NCCC[C@H](NC(=O)CN)C(=O)N[C@@H](CCCCN)C(=O)N[C@@H](CCCCN)C(=O)N[C@@H](CCCNC(N)=[N+]1CCCC1)C(=O)N[C@@H](CCCNC(=N)N)C(=O)N[C@@H](CCC(N)=O)C(=O)N[C@@H](CCCNC(=N)N)C(=O)N[C@@H](CCCNC(=N)N)C(=O)N[C@@H](CCCNC(=N)N)C(=O)N1CCC[C@H]1C(=O)N1CCC[C@H]1C(=O)N[C@@H](CCC(N)=O)C(=O)O (H-GRKK[X4]RQRRRPPQ-OH) | Active | Active | Active | inactive | 7.62 µM | inactive | 77.3 µM | – | – | – | – | – | – |
| N=C(N)NCCC[C@H](NC(=O)CN)C(=O)N[C@@H](CCCCN)C(=O)N[C@@H](CCCCN)C(=O)N[C@@H](CCCNC(=N)N)C(=O)N[C@@H](CCCNC(=N)N)C(=O)N[C@@H](CCC(N)=O)C(=O)N[C@@H](CCCNC(=N)N)C(=O)N[C@@H](CCCNC(=N)N)C(=O)N[C@@H](CCCNC(=N)N)C(=O)N1CCC[C@H]1C(=O)N1CCC[C@H]1C(=O)N[C@@H](CCC(N)=O)C(=O)O | Active | Active | Active | – | 4.79 µM | – | 35.1 µM | Active | Active | 10 | 10 | Active | fold change (FC) [8]: 9; Activity [11]: Active; Activity [12]: Active; inhibition [13]: inactive; inhibition [14]: inactive; Activity [15]: Active; Activity [16]: Active; fold change (FC) [17]: 87; Activity [20]: Active; inhibition [21]: inactive; Activity [22]: Active |
| H-GRKKARQRRRPPQ-OH | Active | Active | Active | inactive | 7.6 µM | inactive | 35.9 µM | Active | Active | 10 | 10 | Active | Activity [24]: Active; Activity [25]: Active |

Now those with a lower Ki [5], led by results:

| Activity [1] | Activity [2] | Activity [3] | Activity [4] | Ki [5] | Activity [6] | Ki [7] | Activity [9] | Activity [10] | Selectivity ratio [18] | Selectivity ratio [19] | Activity [23] | Compound | further results |
| --- | --- | --- | --- | --- | --- | --- | --- | --- | --- | --- | --- | --- | --- |
| Active | Active | Active | inactive | 4.29 µM | inactive | 31.3 µM | Active | Active | 10 | 10 | Active | CC/N=C(\N)NCCC[C@H](NC(=O)[C@H](CCCCN)NC(=O)[C@H](CCCCN)NC(=O)[C@H](CCCNC(=N)N)NC(=O)CN)C(=O)N[C@@H](CCCNC(=N)N)C(=O)N[C@@H](CCC(N)=O)C(=O)N[C@@H](CCCNC(=N)N)C(=O)N[C@@H](CCCNC(=N)N)C(=O)N[C@@H](CCCNC(=N)N)C(=O)N1CCC[C@H]1C(=O)N1CCC[C@H]1C(=O)N[C@@H](CCC(N)=O)C(=O)O | – |
| Active | Active | Active | inactive | 2.98 µM | inactive | 43.3 µM | – | – | – | – | – | N=C(N)NCCC[C@H](NC(=O)CN)C(=O)N[C@@H](CCCCN)C(=O)N[C@@H](CCCCN)C(=O)N[C@@H](CCCN/C(N)=N/CC(F)(F)F)C(=O)N[C@@H](CCCNC(=N)N)C(=O)N[C@@H](CCC(N)=O)C(=O)N[C@@H](CCCNC(=N)N)C(=O)N[C@@H](CCCNC(=N)N)C(=O)N[C@@H](CCCNC(=N)N)C(=O)N1CCC[C@H]1C(=O)N1CCC[C@H]1C(=O)N[C@@H](CCC(N)=O)C(=O)O (H-GRKK[X2]RQRRRPPQ-OH) | – |
| Active | Active | Active | – | 2.9 µM | – | > 100 µM | – | – | – | – | – | N=C(N)NCCC[C@H](NC(=O)CN)C(=O)N[C@@H](CCCCN)C(=O)N[C@@H](CCCCN)C(=O)N[C@@H](CCCN/C(N)=N/C1CC1)C(=O)N[C@@H](CCCNC(=N)N)C(=O)N[C@@H](CCC(N)=O)C(=O)N[C@@H](CCCNC(=N)N)C(=O)N[C@@H](CCCNC(=N)N)C(=O)N[C@@H](CCCNC(=N)N)C(=O)N1CCC[C@H]1C(=O)N1CCC[C@H]1C(=O)N[C@@H](CCC(N)=O)C(=O)O (H-GRKK[X5]RQRRRPPQ-OH) | – |
| Active | Active | Active | inactive | 2.68 µM | inactive | 19.9 µM | – | – | – | – | – | N=C(N)NCCC[C@H](NC(=O)CN)C(=O)N[C@@H](CCCCN)C(=O)N[C@@H](CCCCN)C(=O)N[C@@H](CCCN/C(N)=N/Cc1ccccc1)C(=O)N[C@@H](CCCNC(=N)N)C(=O)N[C@@H](CCC(N)=O)C(=O)N[C@@H](CCCNC(=N)N)C(=O)N[C@@H](CCCNC(=N)N)C(=O)N[C@@H](CCCNC(=N)N)C(=O)N1CCC[C@H]1C(=O)N1CCC[C@H]1C(=O)N[C@@H](CCC(N)=O)C(=O)O (H-GRKK[X3]RQRRRPPQ-OH) | – |
| Active | Active | Active | – | 2.68 µM | – | 63 µM | Active | Active | 10 | 10 | Active | N=C(N)NCCC[C@H](NC(=O)CN)C(=O)N[C@@H](CCCCN)C(=O)N[C@@H](CCCCN)C(=O)N[C@@H](CCCN/C(N)=N/O)C(=O)N[C@@H](CCCNC(=N)N)C(=O)N[C@@H](CCC(N)=O)C(=O)N[C@@H](CCCNC(=N)N)C(=O)N[C@@H](CCCNC(=N)N)C(=O)N[C@@H](CCCNC(=N)N)C(=O)N1CCC[C@H]1C(=O)N1CCC[C@H]1C(=O)N[C@@H](CCC(N)=O)C(=O)O (H-GRKK[X1]RQRRRPPQ-OH) | – |
